# Experimental data published in patent US20070049564A1 (Wyeth, priority 2005, published 2007).
# Read-outs that look alike come from different tables or passages of the source.
# Legend:
# E. coli GC 2235 = test: MIC, broth microdilution; conditions: Escherichia coli, GC2235, E. coli GC 2235
# E. coli GC 2272 = test: MIC, broth microdilution; conditions: Escherichia coli, GC2272, E. coli GC 2272
# E. coli GC 4559 = test: MIC, broth microdilution; conditions: Escherichia coli, GC4559, E. coli GC 4559
# E. coli GC 4560 = test: MIC, broth microdilution; conditions: Escherichia coli, GC4560, E. coli GC 4560
# E. coli GC 6465 = test: MIC, broth microdilution; conditions: Escherichia coli, GC6465, E. coli GC 6465
# Method: (§1) Antimicrobial susceptibility testing. The in vitro activities of the antibiotics are determined by the broth microdilution method as recommended by the National Committee for Clinical Laboratory Standards (NCCLS) (1). Mueller-Hinton II broth (MHBII)(BBL Cockeysville, Md.) is the medium employed in the testing procedures. Microtiter plates containing serial dilutions of each antimicrobial agent are inoculated with each organism to yield the appropriate density (10^5 CFU/ml) in a 100 μl final volume. The plates are incubated for 18-22 hours at 35° C. in ambient air.
# Representative compounds were first incubated in mouse serum for an hour prior to the in vitro testing against a panel of selected gram-positive and gram-negative bacteria strains. All compounds were also pre-incubated in water for an hour prior to testing as control.
# E. coli GC 1073 = test: MIC, broth microdilution; conditions: Escherichia coli, GC1073, E. coli GC 1073
# Method: as §1
# Representative compounds were first incubated in mouse serum for an hour prior to the in vitro testing against a panel of selected gram-positive and gram-negative bacteria strains. All compounds were also pre-incubated in water for an hour prior to testing as control. Representative compounds of Formula I were incubated in human serum prior to MIC determination.
# S. typhimurium GC 2172 = test: MIC, broth microdilution; conditions: Salmonella enterica, TYPHIMURIUM, S. typhimurium GC 2172
# S. aureus GC 1131 = test: MIC, broth microdilution; conditions: Staphylococcus aureus, GC1131, S. aureus GC 1131
# S. aureus GC 6467 = test: MIC, broth microdilution; conditions: Staphylococcus aureus, GC6467, S. aureus GC 6467
# S. aureus GC 1079 = test: MIC, broth microdilution; conditions: Staphylococcus aureus, GC1079, S. aureus GC 1079
# S. aureus GC 4536 = test: MIC, broth microdilution; conditions: Staphylococcus aureus, GC4536, S. aureus GC 4536
# S. epidermidis GC 4935 = test: MIC, broth microdilution; conditions: Staphylococcus epidermidis, GC4935, S. epidermidis GC 4935
# E. faecalis GC 4555 = test: MIC, broth microdilution; conditions: Enterococcus faecalis, GC4555, E. faecalis GC 4555
# E. faecalis GC 2267 = test: MIC, broth microdilution; conditions: Enterococcus faecalis, GC2267, E. faecalis GC 2267
# E. faecalis GC 2242 = test: MIC, broth microdilution; conditions: Enterococcus faecalis, GC2242, E. faecalis GC 2242
# S. pneumoniae* GC 4465 = test: MIC, broth microdilution; conditions: Streptococcus pneumoniae, S. pneumoniae* GC 4465
# S. pneumoniae+ GC 4465 = test: MIC, broth microdilution; conditions: Streptococcus pneumoniae, S. pneumoniae+ GC 4465
# S. agalactiae GC 4564 = test: MIC, broth microdilution; conditions: Streptococcus agalactiae, GC4564, S. agalactiae GC 4564
# c. albicans GC 3066 = test: MIC, broth microdilution
# Staph. aureus Smith = test: In vivo activity (oral, iv; ED50) against Staph. aureus Smith in mice
# Method: Representative examples of compounds of Formula I were tested for the oral efficacy using S. aureus Smith in mice.
# [1] = c. albicans GC 3066, Water pre-incubation
# [2] = Staphylococcus aureus, in Mus musculus, po, read-out: ED50 Staph Smith SOD
# [3] = iv, read-out: ED50 Staph Smith SIV
SMILES,MIC (E. coli GC 2235; Mouse Serum pre-incubation),MIC (E. coli GC 2235; Water pre-incubation),MIC (E. coli GC 2272; Mouse Serum pre-incubation),MIC (E. coli GC 2272; Water pre-incubation),MIC (E. coli GC 4559; Mouse Serum pre-incubation),MIC (E. coli GC 4559; Water pre-incubation),MIC (E. coli GC 4560; Mouse Serum pre-incubation),MIC (E. coli GC 4560; Water pre-incubation),MIC (E. coli GC 6465; Mouse Serum pre-incubation),MIC (E. coli GC 6465; Water pre-incubation),MIC (E. coli GC 1073; Mouse Serum pre-incubation),MIC (E. coli GC 1073; Water pre-incubation),MIC (S. typhimurium GC 2172; Mouse Serum pre-incubation),MIC (S. typhimurium GC 2172; Water pre-incubation),MIC (S. aureus GC 1131; Mouse Serum pre-incubation),MIC (S. aureus GC 1131; Water pre-incubation),MIC (S. aureus GC 6467; Mouse Serum pre-incubation),MIC (S. aureus GC 6467; Water pre-incubation),MIC (S. aureus GC 1079; Mouse Serum pre-incubation),MIC (S. aureus GC 1079; Water pre-incubation),also measured
"CCCN(CC(=O)Nc1cc(N(C)C)c2c(c1O)C(=O)C1=C(O)[C@]3(O)C(=O)C(C(N)=O)=C(O)[C@@H](N(C)C)[C@@H]3C[C@@H]1C2)C(=O)OCOC(=O)C1CCC1 [Example 7, ({[(2-{[(5aR,6aS,7S,10aS)-9-(aminocarbonyl)-4,7-bis(dimethylamino)-1,8,10a,11-tetrahydroxy-10,12-dioxo-5,5a,6,6a,7,10,10a,12-octahydrotetracen-2-yl]amino}-2-oxoethyl)(propyl)amino]carbonyl}oxy)methyl cyclobutanecarboxylate]",0.5 µg/mL,4 µg/mL,0.5 µg/mL,4 µg/mL,1 µg/mL,8 µg/mL,0.25 µg/mL,0.5 µg/mL,16 µg/mL,> 64 µg/mL,0.5 µg/mL,8 µg/mL,4 µg/mL,> 64 µg/mL,1 µg/mL,1 µg/mL,4 µg/mL,4 µg/mL,1 µg/mL,4 µg/mL,"MIC (S. aureus GC 4536; Mouse Serum pre-incubation): 1 µg/mL; MIC (S. aureus GC 4536; Water pre-incubation): 1 µg/mL; MIC (S. epidermidis GC 4935; Mouse Serum pre-incubation): 2 µg/mL; MIC (S. epidermidis GC 4935; Water pre-incubation): 2 µg/mL; MIC (E. faecalis GC 4555; Mouse Serum pre-incubation): 0.5 µg/mL; MIC (E. faecalis GC 4555; Water pre-incubation): 1 µg/mL; MIC (E. faecalis GC 2267; Mouse Serum pre-incubation): 1 µg/mL; MIC (E. faecalis GC 2267; Water pre-incubation): 2 µg/mL; MIC (E. faecalis GC 2242; Mouse Serum pre-incubation): 1 µg/mL; MIC (E. faecalis GC 2242; Water pre-incubation): 1 µg/mL; MIC (S. pneumoniae* GC 4465; Mouse Serum pre-incubation): 0.25 µg/mL; MIC (S. pneumoniae* GC 4465; Water pre-incubation): 0.12 µg/mL; MIC (S. pneumoniae+ GC 4465; Mouse Serum pre-incubation): 4 µg/mL; MIC (S. pneumoniae+ GC 4465; Water pre-incubation): 2 µg/mL; MIC (S. agalactiae GC 4564; Mouse Serum pre-incubation): 0.25 µg/mL; MIC (S. agalactiae GC 4564; Water pre-incubation): 0.5 µg/mL; MIC (c. albicans GC 3066; Candida albicans, GC3066): > 64 µg/mL; MIC (c. albicans GC 3066; [1]): >64 UG/ML; ED50 (Staph. aureus Smith; [2]): 16.1 mg/kg; ED50 (Staph. aureus Smith; [3]): 0.52 mg/kg"
"CCCN(CC(=O)Nc1cc(N(C)C)c2c(c1O)C(=O)C1=C(O)[C@]3(O)C(=O)C(C(N)=O)=C(O)[C@@H](N(C)C)[C@@H]3C[C@@H]1C2)C(=O)OCOC(=O)c1ccc(F)cc1 [Example 8, ({[(2-{[(5aR,6aS,7S,10aS)-9-(aminocarbonyl)-4,7-bis(dimethylamino)-1,8,10a,11-tetrahydroxy-10,12-dioxo-5,5a,6,6a,7,10,10a,12-octahydrotetracen-2-yl]amino}-2-oxoethyl)(propyl)amino]carbonyl}oxy)methyl 4-fluorobenzoate]",1 µg/mL,16 µg/mL,1 µg/mL,32 µg/mL,1 µg/mL,64 µg/mL,0.5 µg/mL,4 µg/mL,8 µg/mL,> 64 µg/mL,1 µg/mL,32 µg/mL,8 µg/mL,> 64 µg/mL,1 µg/mL,2 µg/mL,4 µg/mL,8 µg/mL,2 µg/mL,4 µg/mL,"MIC (S. aureus GC 4536; Mouse Serum pre-incubation): 0.5 µg/mL; MIC (S. aureus GC 4536; Water pre-incubation): 2 µg/mL; MIC (S. epidermidis GC 4935; Mouse Serum pre-incubation): 2 µg/mL; MIC (S. epidermidis GC 4935; Water pre-incubation): 8 µg/mL; MIC (E. faecalis GC 4555; Mouse Serum pre-incubation): 0.5 µg/mL; MIC (E. faecalis GC 4555; Water pre-incubation): 8 µg/mL; MIC (E. faecalis GC 2267; Mouse Serum pre-incubation): 2 µg/mL; MIC (E. faecalis GC 2267; Water pre-incubation): 8 µg/mL; MIC (E. faecalis GC 2242; Mouse Serum pre-incubation): 1 µg/mL; MIC (E. faecalis GC 2242; Water pre-incubation): 4 µg/mL; MIC (S. pneumoniae* GC 4465; Mouse Serum pre-incubation): < 0.06 µg/mL; MIC (S. pneumoniae* GC 4465; Water pre-incubation): 0.25 µg/mL; MIC (S. pneumoniae+ GC 4465; Mouse Serum pre-incubation): 1 µg/mL; MIC (S. pneumoniae+ GC 4465; Water pre-incubation): 4 µg/mL; MIC (S. agalactiae GC 4564; Mouse Serum pre-incubation): 0.25 µg/mL; MIC (S. agalactiae GC 4564; Water pre-incubation): 0.5 µg/mL; MIC (c. albicans GC 3066; Candida albicans, GC3066): > 64 µg/mL; MIC (c. albicans GC 3066; [1]): >64 UG/ML; ED50 (Staph. aureus Smith; [2]): 16.6 mg/kg; ED50 (Staph. aureus Smith; [3]): 0.48 mg/kg"
"CCCN(CC(=O)Nc1cc(N(C)C)c2c(c1O)C(=O)C1=C(O)[C@]3(O)C(=O)C(C(N)=O)=C(O)[C@@H](N(C)C)[C@@H]3C[C@@H]1C2)C(=O)OCOC(=O)C(C)(C)C [Example 9, ({[(2-{[(5aR,6aS,7S,10aS)-9-(aminocarbonyl)-4,7-bis(dimethylamino)-1,8,10a,11-tetrahydroxy-10,12-dioxo-5,5a,6,6a,7,10,10a,12-octahydrotetracen-2-yl]amino}-2-oxoethyl)(propyl)amino]carbonyl}oxy)methyl pivalate]",0.5 µg/mL,4 µg/mL,0.5 µg/mL,8 µg/mL,1 µg/mL,8 µg/mL,0.25 µg/mL,1 µg/mL,4 µg/mL,> 64 µg/mL,1 µg/mL,8 µg/mL,8 µg/mL,> 64 µg/mL,< 0.06 µg/mL,0.25 µg/mL,1 µg/mL,2 µg/mL,2 µg/mL,1 µg/mL,"MIC (S. aureus GC 4536; Mouse Serum pre-incubation): 0.5 µg/mL; MIC (S. aureus GC 4536; Water pre-incubation): 0.5 µg/mL; MIC (S. epidermidis GC 4935; Mouse Serum pre-incubation): 0.25 µg/mL; MIC (S. epidermidis GC 4935; Water pre-incubation): 1 µg/mL; MIC (E. faecalis GC 4555; Mouse Serum pre-incubation): 0.5 µg/mL; MIC (E. faecalis GC 4555; Water pre-incubation): 2 µg/mL; MIC (E. faecalis GC 2267; Mouse Serum pre-incubation): 1 µg/mL; MIC (E. faecalis GC 2267; Water pre-incubation): 2 µg/mL; MIC (E. faecalis GC 2242; Mouse Serum pre-incubation): 0.5 µg/mL; MIC (E. faecalis GC 2242; Water pre-incubation): 1 µg/mL; MIC (S. pneumoniae* GC 4465; Mouse Serum pre-incubation): < 0.06 µg/mL; MIC (S. pneumoniae* GC 4465; Water pre-incubation): < 0.06 µg/mL; MIC (S. pneumoniae+ GC 4465; Mouse Serum pre-incubation): 2 µg/mL; MIC (S. pneumoniae+ GC 4465; Water pre-incubation): 2 µg/mL; MIC (S. agalactiae GC 4564; Mouse Serum pre-incubation): 0.12 µg/mL; MIC (S. agalactiae GC 4564; Water pre-incubation): 0.25 µg/mL; MIC (c. albicans GC 3066; Candida albicans, GC3066): > 64 µg/mL; MIC (c. albicans GC 3066; [1]): >64 UG/ML; ED50 (Staph. aureus Smith; [2]): 11.3 mg/kg; ED50 (Staph. aureus Smith; [3]): 0.32 mg/kg"
"CCCN(CC(=O)Nc1cc(N(C)C)c2c(c1O)C(=O)C1=C(O)[C@]3(O)C(=O)C(C(N)=O)=C(O)[C@@H](N(C)C)[C@@H]3C[C@@H]1C2)C(=O)OCOC(=O)C(C)C [Example 10, ({[(2-{[(5aR,6aS,7S,10aS)-9-(aminocarbonyl)-4,7-bis(dimethylamino)-1,8,10a,11-tetrahydroxy-10,12-dioxo-5,5a,6,6a,7,10,10a,12-octahydrotetracen-2-yl]amino}-2-oxoethyl)(propyl)amino]carbonyl}oxy)methyl 2-methylpropanoate]",0.25 µg/mL,4 µg/mL,0.5 µg/mL,8 µg/mL,0.5 µg/mL,16 µg/mL,0.12 µg/mL,0.12 µg/mL,8 µg/mL,> 64 µg/mL,0.5 µg/mL,16 µg/mL,4 µg/mL,> 64 µg/mL,0.12 µg/mL,0.12 µg/mL,2 µg/mL,2 µg/mL,0.5 µg/mL,1 µg/mL,"MIC (S. aureus GC 4536; Mouse Serum pre-incubation): 0.25 µg/mL; MIC (S. aureus GC 4536; Water pre-incubation): 0.5 µg/mL; MIC (S. epidermidis GC 4935; Mouse Serum pre-incubation): 0.5 µg/mL; MIC (S. epidermidis GC 4935; Water pre-incubation): 1 µg/mL; MIC (E. faecalis GC 4555; Mouse Serum pre-incubation): 0.5 µg/mL; MIC (E. faecalis GC 4555; Water pre-incubation): 1 µg/mL; MIC (E. faecalis GC 2267; Mouse Serum pre-incubation): 1 µg/mL; MIC (E. faecalis GC 2267; Water pre-incubation): 2 µg/mL; MIC (E. faecalis GC 2242; Mouse Serum pre-incubation): 0.25 µg/mL; MIC (E. faecalis GC 2242; Water pre-incubation): 0.5 µg/mL; MIC (S. pneumoniae* GC 4465; Mouse Serum pre-incubation): < 0.06 µg/mL; MIC (S. pneumoniae* GC 4465; Water pre-incubation): < 0.06 µg/mL; MIC (S. pneumoniae+ GC 4465; Mouse Serum pre-incubation): 1 µg/mL; MIC (S. pneumoniae+ GC 4465; Water pre-incubation): 1 µg/mL; MIC (S. agalactiae GC 4564; Mouse Serum pre-incubation): < 0.06 µg/mL; MIC (S. agalactiae GC 4564; Water pre-incubation): 0.12 µg/mL; MIC (c. albicans GC 3066; Candida albicans, GC3066): > 64 µg/mL; MIC (c. albicans GC 3066; [1]): >64 UG/ML; ED50 (Staph. aureus Smith; [2]): 13.6 mg/kg; ED50 (Staph. aureus Smith; [3]): 0.36 mg/kg"
